Reference: patent US20080145424A1, “Sustained release L-arginine formulations and methods of manufacture and use” (Enos Phramaceuticals, Inc., priority 2002, published 2008)

Tested on: total infarct volume
Assay: Dose optimization of combination of simvastatin and L-arginine, infarct volume in mice
Type: in vivo
Conditions: mice injected with varying levels of simvastatin and L-arginine; predicted by statistical analysis

Q: How did the “optimal range of the combination” value turn out when `CCC(C)(C)C(=O)O[C@H]1C[C@@H](C)C=C2C=C[C@H](C)[C@H](CC[C@@H]3C[C@@H](O)CC(=O)O3)[C@H]21` [simvastatin] was run?
A: 1.2 to 1.4 mg/kg
